{
  "source": "paper PMC10850047",
  "about": "“Exploring the impact of PEGylation on pharmacokinetics: a size-dependent effect of polyethylene glycol on prostate-specific membrane antigen inhibitors” (EJNMMI Research, 2024)",
  "key": {"PSMA": {"biological_target": "T1, PSMA (Homo sapiens, UniProt Q04609)", "T1 construct": "host or cells: LNCaP", "T1 sequence (Q04609 whole entry)": "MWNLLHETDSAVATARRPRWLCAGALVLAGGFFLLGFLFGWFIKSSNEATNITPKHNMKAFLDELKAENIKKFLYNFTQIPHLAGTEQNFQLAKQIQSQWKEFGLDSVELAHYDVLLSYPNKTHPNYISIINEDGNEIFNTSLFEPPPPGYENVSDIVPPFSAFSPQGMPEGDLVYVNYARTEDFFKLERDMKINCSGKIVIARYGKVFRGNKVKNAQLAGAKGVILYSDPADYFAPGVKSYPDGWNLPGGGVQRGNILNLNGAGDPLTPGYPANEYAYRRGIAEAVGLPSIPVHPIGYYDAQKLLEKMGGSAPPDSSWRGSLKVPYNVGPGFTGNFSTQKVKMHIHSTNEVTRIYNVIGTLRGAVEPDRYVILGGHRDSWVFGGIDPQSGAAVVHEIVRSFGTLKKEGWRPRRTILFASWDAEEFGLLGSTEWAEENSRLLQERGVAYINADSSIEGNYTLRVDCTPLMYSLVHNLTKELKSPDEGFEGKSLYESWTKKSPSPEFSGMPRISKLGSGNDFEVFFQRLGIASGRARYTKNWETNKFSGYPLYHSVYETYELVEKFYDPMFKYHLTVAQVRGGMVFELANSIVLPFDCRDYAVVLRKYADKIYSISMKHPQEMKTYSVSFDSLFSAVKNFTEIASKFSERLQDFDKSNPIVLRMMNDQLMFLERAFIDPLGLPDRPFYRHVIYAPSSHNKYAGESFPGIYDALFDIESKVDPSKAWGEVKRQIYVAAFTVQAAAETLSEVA", "experiment": "Competitive cell binding assay against [68Ga]Ga-PSMA-11 on LNCaP cells", "conditions": "competition with [68Ga]Ga-PSMA-11, natGa-labeled standards, 1 h 37 °C", "description": "LNCaP prostate cancer cell line obtained from the American Type Culture Collection (ATCC, Manassas, VA) was used for cell affinity studies. The cells were grown in a meilunbio RPMI 1640 medium (ATCC modified) supplemented with 10% fetal bovine serum and 1% streptomycin/penicillin (Thermo Fisher Scientific, USA) at 37 °C in a humidified 5% CO2 atmosphere. Two days (48 ± 2 h) prior to in vitro experiments, the cells were harvested using trypsin-ethylenediaminetetraacetic acid (EDTA; 0.25% trypsin, 0.02% EDTA) in PBS and centrifuged. The supernatant was disposed, and the cell pellet was resuspended in a culture medium, and LNCaP cells (150,000 cells/well) were counted with a hemocytometer and seeded in poly-L-lysine-coated 24-well plates used in cell binding studies. The cells were then allowed to grow at 37 °C for 48 h. PC3-PIP cells provided by Professor Xiaoyuan Chen (Singapore) require additional Puromycin (2 µg/ml) in addition to the appealed culture conditions. Detailed information regarding uptake and internalization experiments can be found in the previous report.\nIn order to determine the binding affinity, a competitive cell binding assay was performed. […] The total radioactivity in each well was measured with a gamma counter. […]"}, "[1]": {"experiment": "Radiochemical stability in PBS at 37 °C", "assay_type": "physicochemical", "conditions": "2 h", "description": "(§1) The radiochemical purity of samples incubated in PBS at each time point was determined using RP-HPLC. For the samples in human serum, a pretreatment step was applied. Briefly, the human serum samples underwent precipitation with acetonitrile, and the radiochemical purity of each supernatant aliquot was determined using RP-HPLC after centrifugation for 5 min at 10,000 rpm. The experiments were performed in triplicate."}, "[2]": {"experiment": "Radiochemical stability in human serum at 37 °C", "assay_type": "in vitro ADME", "conditions": "2 h", "description": "as §1"}, "LNCaP cells": {"system": "LNCaP cells", "experiment": "Uptake and internalization in LNCaP cells", "assay_type": "cell-based, human", "conditions": "120 min incubation, normalized to 10^6 cells", "description": "LNCaP prostate cancer cell line obtained from the American Type Culture Collection (ATCC, Manassas, VA) was used for cell affinity studies. […] The supernatant was disposed, and the cell pellet was resuspended in a culture medium, and LNCaP cells (150,000 cells/well) were counted with a hemocytometer and seeded in poly-L-lysine-coated 24-well plates used in cell binding studies. The cells were then allowed to grow at 37 °C for 48 h. PC3-PIP cells provided by Professor Xiaoyuan Chen (Singapore) require additional Puromycin (2 µg/ml) in addition to the appealed culture conditions."}, "[3]": {"system": "PC3-PIP tumor-bearing balb/c-nu mice", "experiment": "Biodistribution in PC3-PIP tumor model", "assay_type": "in vivo", "conditions": "mean ± SD (n=5)", "description": "All animal experiments were performed with the approval of the institutional animal ethics committee. Male NOD/SCID mice (5 − 6 weeks old) implanted with LNCaP cells were used for imaging and biodistribution experiments as previously described. The mice were imaged or used in biodistribution studies once the tumor grew to 8 − 10 mm in diameter over a period of 4 − 5 weeks. At the same time, male balb/c-nu mice (5 − 6 weeks old) implanted with PC3-PIP cells were used as an alternative tumor model for imaging and biodistribution experiments.\nTo conduct biodistribution studies, male mice bearing LNCaP or PC3-PIP tumors with an average body weight of approximately 20 ± 5 g and a tumor diameter of 8 − 10 mm were administered a bolus injection of 2.5 MBq of the corresponding radioligand via the tail vein. After 30, 60, and 120 min, the mice were anesthetized with isoflurane and subsequently euthanized by CO2 asphyxiation. Blood was drawn, and the organs of interest were promptly harvested, blotted dry, and weighed. The radioactivity of the collected mouse organs was measured and expressed as the percentage of the injected dose per gram of tissue (%ID/g). Each group consisted of at least five mice."}, "LNCaP tumors": {"system": "LNCaP tumors", "experiment": "Micro-PET/CT blocking experiment with 2-PMPA, LNCaP tumor model", "assay_type": "in vivo, mice", "conditions": "40 nmol 2-PMPA 30 min before radioligand, static scan 60 min later", "description": "(§2) To perform imaging studies, the male mice bearing LNCaP tumors were injected with the corresponding radioligand (~ 2.5 MBq; 100 μL) via their tail veins. The micro-PET/CT scans (Inveon PET, Siemens) were conducted at 10, 30, 60, and 120 min after injection. The mice were anesthetized and maintained under 2% isoflurane in oxygen at a flow rate of 2 L/min during the 2-h imaging study. First, a 10 min static PET imaging acquisition was carried out, followed by a 10 min CT scan for localization and attenuation correction. Data analysis was performed using Inveon Research Workplace software. For PC3-PIP tumor model, the imaging studies were performed with micro-PET/SPECT/CT (Inliview-3000B, Novel Medical). Data analysis was performed using Nmsoft-Al ws v1.7–1 software.\n(§3) To evaluate the specificity of radioligands, blocking experiments were performed. In brief, 40 nmol of the PSMA inhibitor 2-PMPA was administered, followed by the injection of approximately 2.6 MBq of radioligands after 30 min. Then a static scan of micro-PET/CT was performed 60 min later."}, "PC3-PIP tumors": {"system": "PC3-PIP tumors", "experiment": "Micro-PET/CT blocking experiment with 2-PMPA, PC3-PIP tumor model", "assay_type": "in vivo, mice", "conditions": "identical methodology", "description": "as §2, §3"}, "[4]": {"system": "LNCaP tumor-bearing NOD/SCID mice", "conditions": "mouse, in vivo"}},
  "note": "Where two headings read alike, the source gives them in different places.",
  "data": [
    {"smiles": "O=C(O)CC[C@H](NC(=O)N[C@@H](CCCCN(CC(=O)NCCOCCOCCOCCOCCNC(=O)CN1CCN(CC(=O)O)CCN(CC(=O)O)CCN(CC(=O)O)CC1)C(=O)C1c2ccccc2-c2ccccc21)C(=O)O)C(=O)O.[68Ga]", "note": "[[^68Ga]Ga-PP4-WD]", "values": [
      {"measurement": "IC50", "setting": "PSMA", "value": "8.06 ± 0.91", "unit": "nM"},
      {"measurement": "Radiochemical purity after incubation in PBS", "setting": "[1]", "value": 97, "unit": "%"},
      {"measurement": "Radiochemical purity after incubation in human serum", "setting": "[2]", "value": "96.83 ± 0.87", "unit": "%"},
      {"measurement": "Internalization in LNCaP cells", "setting": "LNCaP cells", "value": "9.36 ± 1.70", "unit": "%"},
      {"measurement": "Uptake in LNCaP cells", "setting": "LNCaP cells", "value": "26.30 ± 2.06", "unit": "%"},
      {"measurement": "Blood uptake", "setting": "[3]; 30 min p.i.", "value": "1.07±0.47", "unit": "%ID/g"},
      {"measurement": "Bone uptake", "setting": "[3]; 30 min p.i.", "value": "0.41±0.17", "unit": "%ID/g"},
      {"measurement": "Brain uptake", "setting": "[3]; 30 min p.i.", "value": "0.05±0.04", "unit": "%ID/g"},
      {"measurement": "Heart uptake", "setting": "[3]; 30 min p.i.", "value": "0.39±0.26", "unit": "%ID/g"},
      {"measurement": "Kidney uptake", "setting": "[3]; 30 min p.i.", "value": "17.85±4.66", "unit": "%ID/g"},
      {"measurement": "Liver uptake", "setting": "[3]; 30 min p.i.", "value": "0.36±0.14", "unit": "%ID/g"},
      {"measurement": "Lung uptake", "setting": "[3]; 30 min p.i.", "value": "0.99±0.22", "unit": "%ID/g"},
      {"measurement": "Muscle uptake", "setting": "[3]; 30 min p.i.", "value": "0.36±0.25", "unit": "%ID/g"},
      {"measurement": "Salivary uptake", "setting": "[3]; 30 min p.i.", "value": "0.46±0.16", "unit": "%ID/g"},
      {"measurement": "Small int (small intestine) uptake", "setting": "[3]; 30 min p.i.", "value": "0.33±0.15", "unit": "%ID/g"},
      {"measurement": "Spleen uptake", "setting": "[3]; 30 min p.i.", "value": "1.06±0.89", "unit": "%ID/g"},
      {"measurement": "Stomach uptake", "setting": "[3]; 30 min p.i.", "value": "0.44±0.18", "unit": "%ID/g"},
      {"measurement": "Tumor uptake", "setting": "[3]; 30 min p.i.", "value": "26.49±3.34", "unit": "%ID/g"},
      {"measurement": "Blood uptake", "setting": "[3]; 60 min p.i.", "value": "0.19±0.05", "unit": "%ID/g"},
      {"measurement": "Bone uptake", "setting": "[3]; 60 min p.i.", "value": "0.11±0.02", "unit": "%ID/g"},
      {"measurement": "Brain uptake", "setting": "[3]; 60 min p.i.", "value": "0.02±0.01", "unit": "%ID/g"},
      {"measurement": "Heart uptake", "setting": "[3]; 60 min p.i.", "value": "0.06±0.01", "unit": "%ID/g"},
      {"measurement": "Kidney uptake", "setting": "[3]; 60 min p.i.", "value": "2.96±1.04", "unit": "%ID/g"},
      {"measurement": "Liver uptake", "setting": "[3]; 60 min p.i.", "value": "0.16±0.03", "unit": "%ID/g"},
      {"measurement": "Lung uptake", "setting": "[3]; 60 min p.i.", "value": "0.23±0.05", "unit": "%ID/g"},
      {"measurement": "Muscle uptake", "setting": "[3]; 60 min p.i.", "value": "0.04±0.02", "unit": "%ID/g"},
      {"measurement": "Salivary uptake", "setting": "[3]; 60 min p.i.", "value": "0.17±0.09", "unit": "%ID/g"},
      {"measurement": "Small int (small intestine) uptake", "setting": "[3]; 60 min p.i.", "value": "0.1±0.04", "unit": "%ID/g"},
      {"measurement": "Spleen uptake", "setting": "[3]; 60 min p.i.", "value": "0.22±0.05", "unit": "%ID/g"},
      {"measurement": "Stomach uptake", "setting": "[3]; 60 min p.i.", "value": "0.09±0.02", "unit": "%ID/g"},
      {"measurement": "Tumor uptake", "setting": "[3]; 60 min p.i.", "value": "27.43 ± 1.81", "unit": "%ID/g"},
      {"measurement": "Blood uptake", "setting": "[3]; 120 min p.i.", "value": "0.17±0.04", "unit": "%ID/g"},
      {"measurement": "Bone uptake", "setting": "[3]; 120 min p.i.", "value": "0.08±0.03", "unit": "%ID/g"},
      {"measurement": "Brain uptake", "setting": "[3]; 120 min p.i.", "value": "0.01±0.01", "unit": "%ID/g"},
      {"measurement": "Heart uptake", "setting": "[3]; 120 min p.i.", "value": "0.06±0.03", "unit": "%ID/g"},
      {"measurement": "Kidney uptake", "setting": "[3]; 120 min p.i.", "value": "1.21±0.30", "unit": "%ID/g"},
      {"measurement": "Liver uptake", "setting": "[3]; 120 min p.i.", "value": "0.14±0.05", "unit": "%ID/g"},
      {"measurement": "Lung uptake", "setting": "[3]; 120 min p.i.", "value": "0.13±0.07", "unit": "%ID/g"},
      {"measurement": "Muscle uptake", "setting": "[3]; 120 min p.i.", "value": "0.04±0.03", "unit": "%ID/g"},
      {"measurement": "Salivary uptake", "setting": "[3]; 120 min p.i.", "value": "0.08±0.03", "unit": "%ID/g"},
      {"measurement": "Small int (small intestine) uptake", "setting": "[3]; 120 min p.i.", "value": "0.07±0.03", "unit": "%ID/g"},
      {"measurement": "Spleen uptake", "setting": "[3]; 120 min p.i.", "value": "0.13±0.10", "unit": "%ID/g"},
      {"measurement": "Stomach uptake", "setting": "[3]; 120 min p.i.", "value": "0.06±0.03", "unit": "%ID/g"},
      {"measurement": "Tumor uptake", "setting": "[3]; 120 min p.i.", "value": "19.42±4.00", "unit": "%ID/g"},
      {"measurement": "Radioactivity upon blocking with 2-PMPA", "setting": "LNCaP tumors", "value": "substantially reduced radioactivity"},
      {"measurement": "Outcome of blocking imaging with 2-PMPA", "setting": "PC3-PIP tumors", "value": "in concordance with those observed in the LNCaP tumor model"},
      {"measurement": "Renal uptake reduced by a factor compared to [68Ga]Ga-Flu-1", "setting": "[4]", "value": 40},
      {"measurement": "Renal uptake, fold less compared to [68Ga]Ga-Flu-1", "setting": "[4]", "value": "tenfold"},
      {"measurement": "Bone uptake", "setting": "[4]; 0.5 h", "value": "0.36±0.09", "unit": "%ID/g"},
      {"measurement": "Tumor uptake", "setting": "[4]; 0.5 h", "value": "33.45 ± 3.40", "unit": "%ID/g"},
      {"measurement": "Bone uptake", "setting": "[4]; 1 h", "value": "0.39±0.22", "unit": "%ID/g"},
      {"measurement": "Tumor uptake", "setting": "[4]; 1 h", "value": "39.28 ± 3.25", "unit": "%ID/g"},
      {"measurement": "Bone uptake", "setting": "[4]; 2 h", "value": "0.26±0.06", "unit": "%ID/g"},
      {"measurement": "Tumor uptake", "setting": "[4]; 2 h", "value": "25.75 ± 2.43", "unit": "%ID/g"}
    ]}
  ]
}
